10 compounds from ChEMBL document CHEMBL5291721, “A preclinical secondary pharmacology resource illuminates target-adverse drug reaction associations of marketed drugs” (Nat Commun, 2023) can be followed below.

Some targets named below: Glucagon receptor (Homo sapiens, UniProt P47871); Melanocortin receptor 4 (Homo sapiens, UniProt P32245); Histamine H1 receptor (Homo sapiens, UniProt P35367).
Assay [1] concerns the target T1, Alpha-1A adrenergic receptor (Homo sapiens, UniProt P35348).
T1 sequence (P35348 whole entry): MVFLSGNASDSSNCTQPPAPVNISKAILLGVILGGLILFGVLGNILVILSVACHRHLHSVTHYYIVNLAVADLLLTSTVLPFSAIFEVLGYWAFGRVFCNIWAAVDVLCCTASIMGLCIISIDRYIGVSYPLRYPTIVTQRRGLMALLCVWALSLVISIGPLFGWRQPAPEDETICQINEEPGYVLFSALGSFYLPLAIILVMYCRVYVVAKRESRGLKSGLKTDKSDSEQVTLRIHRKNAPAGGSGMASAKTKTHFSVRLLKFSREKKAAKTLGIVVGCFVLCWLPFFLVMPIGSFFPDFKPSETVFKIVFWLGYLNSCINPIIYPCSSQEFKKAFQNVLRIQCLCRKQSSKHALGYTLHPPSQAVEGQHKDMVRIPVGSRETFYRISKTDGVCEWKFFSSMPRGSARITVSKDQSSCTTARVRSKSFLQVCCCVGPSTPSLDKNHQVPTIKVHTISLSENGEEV

In assay [2] the target is Voltage-dependent N-type calcium channel subunit alpha-1B (Rattus norvegicus, UniProt Q02294). The format is functional.
Assay [3] concerns the target T2, Corticotropin-releasing factor receptor 2 (Homo sapiens, UniProt Q13324).
T2 sequence (Q13324 whole entry): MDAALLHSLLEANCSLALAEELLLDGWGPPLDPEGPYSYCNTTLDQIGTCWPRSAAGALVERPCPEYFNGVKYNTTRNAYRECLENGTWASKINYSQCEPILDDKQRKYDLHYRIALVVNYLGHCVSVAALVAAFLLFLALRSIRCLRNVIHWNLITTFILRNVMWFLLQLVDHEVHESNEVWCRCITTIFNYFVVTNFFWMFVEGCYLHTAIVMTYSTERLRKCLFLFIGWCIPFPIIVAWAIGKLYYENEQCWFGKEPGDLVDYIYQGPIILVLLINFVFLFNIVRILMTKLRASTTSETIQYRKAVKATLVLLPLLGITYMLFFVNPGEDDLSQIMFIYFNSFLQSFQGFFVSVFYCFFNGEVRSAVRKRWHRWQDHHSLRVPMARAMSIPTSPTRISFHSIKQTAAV

In assay [4] the target is T3, Endothelin receptor type B (Homo sapiens, UniProt P24530).
T3 sequence (P24530 whole entry): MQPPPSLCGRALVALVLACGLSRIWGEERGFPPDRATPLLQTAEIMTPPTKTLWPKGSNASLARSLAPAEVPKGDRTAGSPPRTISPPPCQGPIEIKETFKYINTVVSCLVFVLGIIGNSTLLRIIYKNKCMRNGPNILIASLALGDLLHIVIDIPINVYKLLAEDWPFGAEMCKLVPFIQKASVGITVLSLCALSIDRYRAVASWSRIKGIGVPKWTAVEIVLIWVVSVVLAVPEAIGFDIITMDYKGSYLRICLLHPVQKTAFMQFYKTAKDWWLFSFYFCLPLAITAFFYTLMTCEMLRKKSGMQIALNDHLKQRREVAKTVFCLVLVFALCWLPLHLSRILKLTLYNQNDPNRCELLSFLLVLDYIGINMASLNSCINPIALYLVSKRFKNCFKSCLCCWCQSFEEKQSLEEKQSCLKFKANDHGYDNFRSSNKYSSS

The target of another assay is T4, Glucocorticoid receptor (Homo sapiens, UniProt P04150).
T4 sequence (P04150 whole entry): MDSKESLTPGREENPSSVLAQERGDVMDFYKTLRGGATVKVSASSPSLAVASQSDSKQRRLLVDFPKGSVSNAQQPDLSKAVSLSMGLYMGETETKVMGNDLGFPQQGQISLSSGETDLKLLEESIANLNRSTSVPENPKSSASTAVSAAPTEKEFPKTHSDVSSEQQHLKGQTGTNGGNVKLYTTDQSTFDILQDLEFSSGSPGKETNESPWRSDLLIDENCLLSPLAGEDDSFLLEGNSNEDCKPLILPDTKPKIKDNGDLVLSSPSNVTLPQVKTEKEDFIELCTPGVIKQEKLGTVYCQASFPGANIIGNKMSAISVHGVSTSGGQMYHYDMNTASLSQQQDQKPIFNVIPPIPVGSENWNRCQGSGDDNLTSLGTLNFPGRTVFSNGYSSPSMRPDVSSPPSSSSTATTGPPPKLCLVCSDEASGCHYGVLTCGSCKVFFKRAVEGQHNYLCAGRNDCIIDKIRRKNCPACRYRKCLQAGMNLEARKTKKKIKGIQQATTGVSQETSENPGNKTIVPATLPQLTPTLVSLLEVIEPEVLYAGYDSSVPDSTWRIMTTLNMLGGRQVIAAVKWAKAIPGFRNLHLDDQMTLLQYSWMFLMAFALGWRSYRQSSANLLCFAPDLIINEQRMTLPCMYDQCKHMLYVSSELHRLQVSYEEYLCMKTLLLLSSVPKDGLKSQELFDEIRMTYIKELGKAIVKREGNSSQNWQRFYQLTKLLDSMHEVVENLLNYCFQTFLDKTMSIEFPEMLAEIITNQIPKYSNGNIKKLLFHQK

For assay [5], the target named is T5, 5-hydroxytryptamine receptor 1A (Homo sapiens, UniProt P08908).
T5 sequence (P08908 whole entry): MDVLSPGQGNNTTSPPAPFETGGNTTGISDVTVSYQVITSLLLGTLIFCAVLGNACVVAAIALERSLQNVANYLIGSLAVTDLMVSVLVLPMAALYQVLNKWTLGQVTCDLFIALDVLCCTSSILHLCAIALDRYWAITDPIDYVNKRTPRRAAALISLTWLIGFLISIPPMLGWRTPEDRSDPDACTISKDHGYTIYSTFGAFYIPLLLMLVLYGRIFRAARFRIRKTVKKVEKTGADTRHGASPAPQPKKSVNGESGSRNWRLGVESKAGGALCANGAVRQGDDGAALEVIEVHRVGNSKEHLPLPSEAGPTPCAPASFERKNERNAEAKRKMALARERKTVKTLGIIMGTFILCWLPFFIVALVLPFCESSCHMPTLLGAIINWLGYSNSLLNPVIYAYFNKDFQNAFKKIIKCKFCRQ

Assay [6] concerns the target T1, Alpha-1A adrenergic receptor. This is another data set of the same source.
Further: assay procedure not described here.

Sequence of Glucagon receptor (P47871 whole entry): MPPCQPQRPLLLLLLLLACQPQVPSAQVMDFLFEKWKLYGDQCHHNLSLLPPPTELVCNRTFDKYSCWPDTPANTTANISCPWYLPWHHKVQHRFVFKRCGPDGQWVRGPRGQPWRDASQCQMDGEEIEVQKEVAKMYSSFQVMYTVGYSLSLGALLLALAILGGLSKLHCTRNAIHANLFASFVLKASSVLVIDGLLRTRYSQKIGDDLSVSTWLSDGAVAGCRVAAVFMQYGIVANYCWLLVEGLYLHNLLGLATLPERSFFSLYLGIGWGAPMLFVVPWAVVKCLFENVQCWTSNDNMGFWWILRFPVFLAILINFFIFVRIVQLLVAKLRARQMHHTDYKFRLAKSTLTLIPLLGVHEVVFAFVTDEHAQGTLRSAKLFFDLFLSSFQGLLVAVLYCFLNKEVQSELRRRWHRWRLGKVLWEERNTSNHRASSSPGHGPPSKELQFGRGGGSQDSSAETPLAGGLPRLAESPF
Sequence of Voltage-dependent N-type calcium channel subunit alpha-1B (Q02294 whole entry): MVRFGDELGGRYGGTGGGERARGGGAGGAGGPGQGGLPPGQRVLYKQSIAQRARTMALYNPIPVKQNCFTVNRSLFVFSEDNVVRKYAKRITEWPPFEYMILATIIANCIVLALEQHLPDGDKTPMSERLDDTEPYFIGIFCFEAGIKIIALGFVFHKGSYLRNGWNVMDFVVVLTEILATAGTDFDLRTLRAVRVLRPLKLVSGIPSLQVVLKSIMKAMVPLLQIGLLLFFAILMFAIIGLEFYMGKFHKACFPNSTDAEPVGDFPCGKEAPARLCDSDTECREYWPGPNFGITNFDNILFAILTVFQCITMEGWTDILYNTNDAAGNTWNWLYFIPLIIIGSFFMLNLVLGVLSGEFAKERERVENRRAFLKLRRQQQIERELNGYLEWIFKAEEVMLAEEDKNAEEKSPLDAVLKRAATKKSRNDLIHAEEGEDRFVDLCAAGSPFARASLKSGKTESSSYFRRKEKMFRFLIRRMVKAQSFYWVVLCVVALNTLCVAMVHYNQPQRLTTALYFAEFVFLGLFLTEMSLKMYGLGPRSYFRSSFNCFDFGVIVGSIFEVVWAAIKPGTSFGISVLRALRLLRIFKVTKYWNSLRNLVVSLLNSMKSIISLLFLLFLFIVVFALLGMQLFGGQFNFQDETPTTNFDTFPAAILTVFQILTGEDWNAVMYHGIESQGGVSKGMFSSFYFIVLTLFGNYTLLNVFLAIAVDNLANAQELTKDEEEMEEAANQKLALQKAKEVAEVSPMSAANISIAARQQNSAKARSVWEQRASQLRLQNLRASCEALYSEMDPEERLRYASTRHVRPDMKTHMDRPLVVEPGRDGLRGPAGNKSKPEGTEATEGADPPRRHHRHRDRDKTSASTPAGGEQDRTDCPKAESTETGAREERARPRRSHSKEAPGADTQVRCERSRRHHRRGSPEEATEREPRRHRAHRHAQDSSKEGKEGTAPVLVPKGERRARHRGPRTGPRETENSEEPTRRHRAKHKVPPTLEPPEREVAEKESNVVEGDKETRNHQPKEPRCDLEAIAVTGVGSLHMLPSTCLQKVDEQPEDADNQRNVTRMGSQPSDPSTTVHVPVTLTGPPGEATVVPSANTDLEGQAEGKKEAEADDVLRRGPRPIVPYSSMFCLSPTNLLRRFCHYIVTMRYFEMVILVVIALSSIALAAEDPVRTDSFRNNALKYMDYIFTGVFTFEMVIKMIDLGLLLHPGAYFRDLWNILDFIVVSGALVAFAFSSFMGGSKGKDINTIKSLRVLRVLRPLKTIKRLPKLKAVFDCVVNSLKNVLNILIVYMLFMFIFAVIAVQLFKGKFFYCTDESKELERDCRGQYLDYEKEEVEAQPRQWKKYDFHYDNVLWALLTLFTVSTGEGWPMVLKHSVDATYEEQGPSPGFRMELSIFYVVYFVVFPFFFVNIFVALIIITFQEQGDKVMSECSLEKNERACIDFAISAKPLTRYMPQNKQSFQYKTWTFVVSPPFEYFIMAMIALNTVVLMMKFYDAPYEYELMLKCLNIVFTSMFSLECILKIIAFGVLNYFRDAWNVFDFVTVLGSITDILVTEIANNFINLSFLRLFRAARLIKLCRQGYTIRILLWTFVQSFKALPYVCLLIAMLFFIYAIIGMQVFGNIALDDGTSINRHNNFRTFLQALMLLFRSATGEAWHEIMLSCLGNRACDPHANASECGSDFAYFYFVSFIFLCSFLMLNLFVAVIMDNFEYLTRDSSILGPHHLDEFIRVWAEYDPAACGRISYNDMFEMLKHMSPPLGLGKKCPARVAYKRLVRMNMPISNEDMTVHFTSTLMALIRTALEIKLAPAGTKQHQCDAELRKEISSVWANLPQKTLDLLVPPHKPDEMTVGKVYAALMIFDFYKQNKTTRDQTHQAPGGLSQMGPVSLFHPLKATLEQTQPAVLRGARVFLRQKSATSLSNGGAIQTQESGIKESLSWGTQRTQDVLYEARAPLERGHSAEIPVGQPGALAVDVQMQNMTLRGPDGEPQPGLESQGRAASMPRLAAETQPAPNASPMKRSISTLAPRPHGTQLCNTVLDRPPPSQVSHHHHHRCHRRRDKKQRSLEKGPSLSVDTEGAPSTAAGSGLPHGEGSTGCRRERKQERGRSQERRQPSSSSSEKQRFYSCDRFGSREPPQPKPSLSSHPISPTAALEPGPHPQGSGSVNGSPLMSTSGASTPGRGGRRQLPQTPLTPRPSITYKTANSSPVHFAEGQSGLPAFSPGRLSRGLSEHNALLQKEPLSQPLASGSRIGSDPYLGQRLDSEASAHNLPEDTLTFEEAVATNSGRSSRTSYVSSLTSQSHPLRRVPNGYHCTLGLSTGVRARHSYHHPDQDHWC
Sequence of Melanocortin receptor 4 (P32245 whole entry): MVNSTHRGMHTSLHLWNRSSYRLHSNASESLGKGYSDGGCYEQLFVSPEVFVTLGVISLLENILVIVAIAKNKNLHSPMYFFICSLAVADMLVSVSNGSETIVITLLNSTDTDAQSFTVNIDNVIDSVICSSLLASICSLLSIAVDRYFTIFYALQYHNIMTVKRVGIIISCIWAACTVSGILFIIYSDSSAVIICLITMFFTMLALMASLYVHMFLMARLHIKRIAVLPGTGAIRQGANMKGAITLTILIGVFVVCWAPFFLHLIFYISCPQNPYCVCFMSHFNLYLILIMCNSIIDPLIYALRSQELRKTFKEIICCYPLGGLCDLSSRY
Sequence of Histamine H1 receptor (P35367 whole entry): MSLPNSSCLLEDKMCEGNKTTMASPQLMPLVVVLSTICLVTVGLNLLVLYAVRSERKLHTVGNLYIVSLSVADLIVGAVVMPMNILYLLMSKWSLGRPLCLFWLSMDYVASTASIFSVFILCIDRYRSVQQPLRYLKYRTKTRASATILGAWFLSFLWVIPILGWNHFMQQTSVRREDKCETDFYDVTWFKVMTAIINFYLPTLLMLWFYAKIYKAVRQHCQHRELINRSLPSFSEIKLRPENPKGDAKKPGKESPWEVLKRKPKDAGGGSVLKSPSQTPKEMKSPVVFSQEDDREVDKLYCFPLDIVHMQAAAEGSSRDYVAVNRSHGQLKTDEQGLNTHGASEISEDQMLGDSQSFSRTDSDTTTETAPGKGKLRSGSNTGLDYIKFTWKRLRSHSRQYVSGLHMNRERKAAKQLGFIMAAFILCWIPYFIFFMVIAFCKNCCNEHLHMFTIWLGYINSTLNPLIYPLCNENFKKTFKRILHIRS

What is called AC50 is the midpoint of the concentration-response curve, whichever way the signal moves. Consider `CCOc1nc2cccc(C(=O)O)c2n1Cc1ccc(-c2ccccc2-c2nnn[nH]2)cc1`, for which the AC50 is greater than 10 µM in assay [1]; greater than 10 µM in assay [2]; greater than 30 µM in assay [3]; greater than 30 µM in [4]; greater than 30 µM at Glucagon receptor; greater than 10 µM at Melanocortin receptor 4. Also, the figures for the AC50 (at Glucocorticoid receptor; in [5]; in [6]) were greater than 30 µM, greater than 10 µM and greater than 10 µM, respectively.
For the compound `CCCNC(=O)NS(=O)(=O)c1ccc(Cl)cc1` [CHLORPROPAMIDE], the AC50 was 5.7 µM in assay [1]; greater than 10 µM in [2]; greater than 30 µM in assay [3]; greater than 30 µM in assay [4]; greater than 30 µM on Glucagon receptor; greater than 30 µM on Melanocortin receptor 4. Moreover, the concentration at half-maximal activity (AC50) on Glucocorticoid receptor is greater than 30 µM; in assay [5] it was greater than 10 µM.
For the compound `Cc1nc(Nc2ncc(C(=O)Nc3c(C)cccc3Cl)s2)cc(N2CCN(CCO)CC2)n1` [DASATINIB], the AC50 is greater than 10 µM in assay [1]; greater than 10 µM in assay [2]; greater than 10 µM in assay [4]; greater than 10 µM at Glucagon receptor; greater than 30 µM at Histamine H1 receptor; greater than 30 µM at Melanocortin receptor 4. Further, the concentration at half-maximal activity (AC50) in assay [5] is 21.9 µM; in assay [6], greater than 10 µM.
For `Cc1ccc(C)c(OCCCC(C)(C)C(=O)O)c1` [GEMFIBROZIL], the AC50 is 13.7 µM in assay [1]; greater than 10 µM in assay [2]; greater than 30 µM in assay [3]; greater than 30 µM in assay [4]; greater than 30 µM at Glucagon receptor; greater than 30 µM on Melanocortin receptor 4. Also, the AC50 in assay [5] and in [6] was greater than 10 µM in each case.
Regarding `COc1cc(C(C)=O)ccc1OCCCN1CCC(c2noc3cc(F)ccc23)CC1` [ILOPERIDONE], the values for the AC50 in [5] and in assay [6] were 0.0785 µM and 0.0018 µM, respectively.
For the compound `CC[C@H](C)C(=O)O[C@H]1C[C@@H](C)C=C2C=C[C@H](C)[C@H](CC[C@@H]3C[C@@H](O)CC(=O)O3)[C@H]21` [LOVASTATIN], the half-maximal activity concentration (AC50) in assay [1] is greater than 10 µM; in [2] it was greater than 10 µM; in assay [3], greater than 30 µM; in [4], greater than 30 µM; at Glucagon receptor, greater than 30 µM; on Melanocortin receptor 4 it was greater than 30 µM. Besides, the figures for the half-maximal activity concentration (AC50) (at Glucocorticoid receptor; in [5]; in assay [6]) were greater than 30 µM, greater than 10 µM and greater than 10 µM, respectively.
`CC[C@@H](CO)NC(=O)[C@@H]1C=C2c3cccc4c3c(cn4C)C[C@H]2N(C)C1` [METHYSERGIDE]: the AC50 was greater than 10 µM in assay [1]; greater than 10 µM in [2]; greater than 30 µM in assay [3]; greater than 30 µM in assay [4]; greater than 30 µM at Glucagon receptor; greater than 30 µM on Melanocortin receptor 4. Further, in [5], the AC50 stood at 0.192 µM.
For `CC(CN1c2ccccc2Sc2ccccc21)N(C)C` (stereo not given) [PROMETHAZINE], the AC50 is 0.0996 µM in assay [1]; greater than 10 µM in [2]; greater than 30 µM in assay [3]; greater than 30 µM in assay [4]; greater than 30 µM at Glucagon receptor; 25 µM at Melanocortin receptor 4. Also, the AC50 in [5] turned out to be 6.7 µM; in assay [6] it was 0.162 µM.
In the case of `CN(CCOc1ccc(CC2SC(=O)NC2=O)cc1)c1ccccn1` (stereo not given) [ROSIGLITAZONE], the AC50 in assay [2] was greater than 10 µM; in [3], greater than 30 µM; in assay [4], greater than 30 µM; at Glucagon receptor it was greater than 30 µM; at Melanocortin receptor 4 it was 23.7 µM; in assay [5], greater than 10 µM. Also, the AC50 in assay [6] was greater than 10 µM.
Consider `CC(C)[C@H](N)C(=O)OCCOCn1cnc2c(=O)[nH]c(N)nc21` [VALACYCLOVIR], for which the half-maximal activity concentration (AC50) in [1] was greater than 10 µM; in assay [2], greater than 10 µM; in assay [3], greater than 30 µM; in assay [4], greater than 30 µM; on Glucagon receptor, greater than 30 µM; on Melanocortin receptor 4 it was greater than 30 µM. Further, the AC50 at Glucocorticoid receptor is greater than 30 µM; in [5], greater than 10 µM; in [6], greater than 10 µM.
